Laboratory results reported in US12583895B2, “Polypeptides for restoring endothelial function and methods of use thereof” (Vanderbilt University, priority 2019, dated 2026).
“Also recorded” adds a separate entry of the source. Non-standard residues stand in square brackets, D forms with d. No end group written: not given here. pS = N[C@@H](COP(=O)(O)O)C(=O)O

What was measured:
rat aorta [1] = experiment: Endothelial-dependent relaxation of rat aorta after subfailure stretch injury, muscle bath; format: cell-based; settings: stretch about 2 times resting length, peptide 500 μM, 1 hour, room temperature
Procedure: Freshly isolated rat aorta (RA) was subjected to subfailure stretch and incubated in PL in the absence (S) or presence of NiPp (500 μM) for 1 h at room temperature. […] The percent relaxation was determined as a change to the maximal PE-induced contraction. n=5 rats; #p<0.05, two-way ANOVA. […] Quantification of relative phosphorylation to total p38MAPK level is shown. N=10. *p<0.05, in one-way ANOVA with Tukey post-test. NiPp restores endothelial dysfunction and reduced p38 MAPK phosphorylation induced by stretch injury in RA.
Freshly isolated rat aorta was subjected to subfailure stretch (to haptic endpoint, approximately 2 times the resting length) and treated with NiPp, NiPp3, or scr3NiPp (500 μM) for 1 hour at room temperature. To determine the effect of injury on endothelial function, phenylephrine-precontracted tissues were treated with carbachol (CCH; 10^−8 to 10^−5M) and the percent relaxation was determined as a change to the maximal PE-induced contraction. Data are reported as mean responses±standard deviation. n=8. *p<0.05, two-way ANOVA with Tukey post-tests. There were significant differences between Stretch (S) vs. ctrl or NiPp-treated RA.
Measurement of endothelial-dependent relaxation. Rings of HSV or RA (1-2 mm) were suspended in a muscle bath containing a bicarbonate buffer (120 mM sodium chloride, 4.7 mM potassium chloride, 1.0 mM magnesium sulfate, 1.0 mM monosodium phosphate, 10 mM glucose, 1.5 mM calcium chloride, and 25 mM sodium bicarbonate, pH 7.4) equilibrated with 95% O2/5% CO2 at 37° C. for 1 h at a resting tension of 1 g, manually stretched to three times the resting tension, and maintained at resting tension for an additional 1 h.
This produced the maximal force tension relationship as previously described. […] Contractile responses were defined by stress, calculated using force generated by tissues as follows: stress (×10^5 N/m^2)=force (g)×0.0987/area, where area=wet weight (mg)/at maximal length (mm)]/1.055.
Relaxation was calculated as percent change in stress compared to the maximal PE-induced contraction (set as 100%). […]

rat aorta [2] = experiment: Endothelial-dependent relaxation of rat aorta after cytokine (IL1β / cytomix) injury; format: cell-based; settings: 2 hrs; for endothelial function (percent relaxation to carbachol) after cytokine injury: IL1β alone 50 ng/ml or cytomix (IL1β, TNFa, IFNg), peptide 500 μM; for endothelial function (percent relaxation to carbachol) after IL1β injury: IL1β 50 ng/ml, peptide 100 μM
Procedure: Freshly isolated rat aorta (RA) was cut into rings and suspended in the muscle bath. Tissues were then treated with either IL1β alone (50 ng/ml) or cytomix (IL1β 50 ng/ml, TNFa, 10 ng/ml, IFNg 50 ng/ml) in the absence or presence of NiPp (500 μM) for 2 hrs, contracted with PE, and then treated with escalating doses of carbachol (CCH; 10^−8 to 10^−5M). The percent relaxation was determined as a change to the maximal PE-induced contraction. n=5-7 rats. *p<0.05 in two-way ANOVA with Tukey post-test. NiPp restores cytokines-induced endothelial dysfunction in RA.
Freshly isolated rat aorta (RA) was cut into rings and suspended in the muscle bath. Tissues were then treated with the cytokine IL1β (50 ng/ml) in the absence or presence of NiPp, NiPp3, or scr3NiPp (100 μM) for 2 hrs, contracted with PE, and then treated with escalating doses of carbachol (CCH; 10^−8 to 10^−5 M). The percent relaxation was determined as a change to the maximal PE-induced contraction. n=5-7 rats. *p<0.05 in two-way ANOVA with Tukey post-tests. There were significant differences between IL1β-treated vs ctrl or NiPp-treated RA.
Freshly isolated rat aorta (RA) was cut into rings and suspended in the muscle bath. Tissues were then treated with either IL1β alone (50 ng/ml) or cytomix (IL1β 50 ng/ml, TNFa, 10 ng/ml, IFNg 50 ng/ml) in the absence or presence of NiPp (500 μM) for 2 hrs, contracted with PE, and then treated with escalating doses of carbachol (CCH; 10−8 to 10−5 M).
Freshly isolated rat aorta (RA) was cut into rings and suspended in the muscle bath. Tissues were then treated with the cytokine IL1β (50 ng/ml) in the absence or presence of NiPp, NiPp3, or scr3NiPp (100 μM) for 2 hrs, contracted with PE, and then treated with escalating doses of carbachol (CCH; 10^−8 to 10^−5 M). NiPp3 (SEQ ID NO:77) is a control polypeptide containing non-phosphorylated sequence of X2 of NiPp. scr3NiPp3 (SEQ ID NO:79) is a control polypeptide containing scrambled sequence of X2 of NiPp.

Substance	endothelial function (percent relaxation to carbachol) after subfailure stretch injury (rat aorta [1])	endothelial function (percent relaxation to carbachol) after cytokine injury (rat aorta [2])	endothelial function (percent relaxation to carbachol) after IL1β injury (rat aorta [2])	endothelial function (percent relaxation to carbachol) after IL1β injury (rat aorta [2]; listed as scr3NiPp3)
YARAAARQARASPAARRASAILPG (not fully specified (residue 19)) [NiPp3]	did not restore	significant improvement	–	–
YARAAARQARASPAARRA(pS)AILPG (YARAAARQARASPAARRA[pS]AILPG) [NiPp, Cell-permeant phosphopeptide mimetic of Niban: transduction domain … conjugated to the region surrounding serine 602 of Niban]	restores	improved; also recorded: restores	restores	–
YARAAARQARAAGSPPLA(pS)AIARR (YARAAARQARAAGSPPLA[pS]AIARR) [scr3NiPp]	did not restore	–	did not restore	failed to restore
